According to paper PMC10578927, “An unconventional gatekeeper mutation sensitizes inositol hexakisphosphate kinases to an allosteric inhibitor” (eLife, 2023):
Where a chain is given by its changes, count along the chain named. Read-outs that look alike come from different tables or passages of the source.

Tests used:
Format in all cases: biochemical
[1] = molecular target: T1, IP6K1^L210V (Homo sapiens, UniProt Q92551, L210V); test: High-throughput screen, reverse kinase reaction (5PP-InsP5 + ADP), Kinase-Glo luminescence
T1 construct: made in house; host or cells: E. coli Arctic Express
From the text: Although the NMR assay described above provides direct product detection and the ability to distinguish the PP-InsP isomers ([Harmel et al., 2019]), it is inherently slow and thus not compatible with a high-throughput screen. The use of luminescence-based readouts of ATP consumption to measure IP6K activity is error-prone due to the kinase’s unusually low affinity for ATP, the sensitivity to the ATP/ADP ratio, and its inherent ATPase activity ([Wundenberg et al., 2014]; [Voglmaier et al., 1996]). Nevertheless, we were able to take advantage of these properties by examining the reverse reaction of IP6K1 with the Kinase-Glo assay, where 5PP-InsP5 and ADP are converted to InsP6 and ATP (Figure 3a).
The following solutions were prepared as 4× stock solutions: kinase buffer (HEPES pH 7.4, NaCl, BSA, MgCl2, Tween-20, DTT, and IP6K1^L210V), DMSO/inhibitor, ADP, and 5PP-InsP5. Final concentrations after optimization were 1 mM ADP, 20 mM HEPES, 50 mM NaCl, 0.2 mg/ml BSA, 2 mM MgCl2, 0.05% Tween-20, 1 mM DTT, 250 nM IP6K1^L210V, and 50 μM 5PP-InsP5. The reactions were carried out in 384-well plates following this procedure. 5 µl 4× kinase buffer (buffer only for no kinase controls), 5 µl 4× DMSO or inhibitor and 5 µl 4× ADP solution were subsequently added to all wells. After 10 min equilibration, 5 μl 4× 5PP-InsP5 were added to start the reaction (milli-Q water for negative controls). After 3 hr at room temperature, 20 µl of Promega Kinase-Glo Plus reagent were added and the luminescence read out with a Tecan Infinite M Plex reader using 100-ms exposure time after 10 min of equilibration.
ADP was prepared in a 2× stock solution in milli-Q water and the pH adjusted to 7.0. The following solutions were prepared as 4× stock solutions: kinase buffer (HEPES pH 7.4, NaCl, BSA, MgCl2, Tween-20, DTT, and IP6K1^L210V) and 5PP-InsP5. Final concentrations were 1 mM ADP, 20 mM HEPES, 50 mM NaCl, 0.2 mg/ml BSA, 2 mM MgCl2, 0.05% Tween-20, 1 mM DTT, 250 nM IP6K1^L210V, and 50 µM 5PP-InsP5. The reactions were carried out in 384-well plates following this procedure. 10 µl 2× ADP solution were added to all wells, then 0.2 µl DMSO or compound (1 mM in DMSO) were added followed by the addition of 5 µl 4× kinase buffer. For dose–response curves, compounds were added in serial dilution (twofold serial dilutions in DMSO across multiple plates prior to compound transfer to assay plates, 9 concentrations in total). After 10 min equilibration, 5 µl 4× 5PP-InsP5 were added to start the reaction (milli-Q water for negative controls). After 3 hr at room temperature, 20 µl of Promega Kinase-Glo Plus reagent were added and the luminescence read out with a Tecan Infinite M Plex or Perkin Elmer EnVision reader using 100ms exposure time after 10 min of equilibration. In the counter screen, dose–response curves were measured in the absence of kinase and presence of 50 µM ATP.

[2] = molecular target: T2, IP6K2^wt (Homo sapiens, UniProt Q9UHH9); test: NMR activity assay, [13C6]-InsP6 to 5PP-InsP5
T2 construct: made in house; host or cells: E. coli Arctic Express
T2 sequence (Q9UHH9 1-426): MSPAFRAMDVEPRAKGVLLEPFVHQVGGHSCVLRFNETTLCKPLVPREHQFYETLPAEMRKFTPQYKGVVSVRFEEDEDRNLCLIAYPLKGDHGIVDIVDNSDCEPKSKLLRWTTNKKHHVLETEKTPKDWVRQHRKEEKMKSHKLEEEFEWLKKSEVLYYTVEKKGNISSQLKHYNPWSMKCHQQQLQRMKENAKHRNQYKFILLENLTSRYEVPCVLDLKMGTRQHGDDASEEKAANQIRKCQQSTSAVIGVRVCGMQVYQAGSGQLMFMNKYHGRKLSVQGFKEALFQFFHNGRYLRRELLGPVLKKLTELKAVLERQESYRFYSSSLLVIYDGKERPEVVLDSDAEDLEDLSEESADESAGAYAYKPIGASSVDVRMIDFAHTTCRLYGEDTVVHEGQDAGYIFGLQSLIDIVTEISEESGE
Experimental: (§1) The NMR assay for IP6K activity was performed similarly as described before ([Harmel et al., 2019]) with slight alterations. Enzyme assays were performed in D2O in a total volume of 150 µl containing 20 mM 4-(2-hydroxyethyl)-1-piperazineethanesulfonic acid (HEPES) pH* 6.8, 50 mM NaCl, 6 mM MgCl2, 1 mM ATP, 0.2 mg/ml BSA, 1 mM DTT, 5 mM creatine phosphate and 1 U/ml creatine kinase (ATP-regenerating system) and 50 nM kinase if not otherwise stated. HEPES, NaCl, and BSA were prepared as buffer A and DTT and creatine phosphate as buffer B in D2O and were adjusted to pH* 6.8, respectively. If applicable, inhibitor was added as a DMSO-d6 stock in a twofold dilution series at a final DMSO concentration of 1% if not otherwise mentioned. Otherwise, DMSO-d6 was added to the same percentage. The samples were equilibrated at 37°C for 3 min and the reaction initiated by adding 100 µM [^13C6]-InsP6.

[3] = molecular target: T3, IP6K2^L206V (Homo sapiens, UniProt Q9UHH9, L206V); test: NMR activity assay, [13C6]-InsP6 to 5PP-InsP5
T3 construct: made in house; host or cells: E. coli Arctic Express
T3 sequence (Q9UHH9 1-426 L206V): T2 sequence (Q9UHH9 1-426) with L206V
Experimental: as §1

T1 sequence (Q92551 whole entry L210V): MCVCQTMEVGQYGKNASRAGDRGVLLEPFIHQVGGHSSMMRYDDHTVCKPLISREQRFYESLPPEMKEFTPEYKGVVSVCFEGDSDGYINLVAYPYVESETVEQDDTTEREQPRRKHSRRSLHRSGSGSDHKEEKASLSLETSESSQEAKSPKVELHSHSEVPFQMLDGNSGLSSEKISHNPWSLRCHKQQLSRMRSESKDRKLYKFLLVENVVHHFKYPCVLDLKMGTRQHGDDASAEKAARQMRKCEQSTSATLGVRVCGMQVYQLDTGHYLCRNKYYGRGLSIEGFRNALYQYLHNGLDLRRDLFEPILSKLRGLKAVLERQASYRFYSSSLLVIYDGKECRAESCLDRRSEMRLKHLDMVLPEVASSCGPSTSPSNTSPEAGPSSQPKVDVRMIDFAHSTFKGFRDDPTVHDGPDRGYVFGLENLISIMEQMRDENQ

O=C(O)c1ccc2c(c1)C(=O)N(c1ccc(-c3nc4ccc(N5C(=O)c6ccc(C(=O)O)cc6C5=O)cc4[nH]3)cc1)C2=O [FMP-201300]
IC50 ([1]; Kinase-Glo, reverse reaction, dose-dependent reconfirmation): 1600 nM | Z-score ([1]; primary screen, IP6K1^L210V): -24.0 | %Activity ([1]; primary screen, residual activity of IP6K1^L210V): 12.5% | IC50 [2]: 2140 nM | IC50 ([2]; Figure 4b): 2140 nM | IC50 ([3]; NMR assay): 186 nM | times more potent against IP6K2^L206V compared to IP6K2^wt ([3]; ratio of IC50 values): 11
